# Patent US20040132049A1, “Method for the detection of apoptosis” (priority 2002, published 2004)
# Legend:
# [1] = system: nucleolin and PARP-1 proteins in U937 cells; assay: Immunoblot of nucleolin and PARP-1 in S-100 and nuclear extracts after CPT-induced apoptosis; assay type: cell-based, Human
# Method: Cells were harvested and washed twice with cold PBS. S-100 and nuclear extracts were prepared (Coqueret and Gascan, 2000). Briefly, 100 μl of ice-cold extraction buffer B (10 mM 4-(2-Hydroxyethyl)piperazine-1-ethanesulfonic acid (HEPES; pH 7.9), 1.5 mM MgCl2, 10 mM KCl, 1 mM phenylmethylsulfonyl fluoride (PMSF), 1 μg/ml leupeptin, 1 μg/ml aprotinin) were added to the cells. After three cycles of freeze-thaw, S-100 extracts were recovered as supernatant following centrifugation at 12,000 rpm for 1 minute, and pellets containing nuclei were resuspended in 40 μl of buffer C (20 mM HEPES, pH 7.9, 1.5 mM MgCl2, 420 mM KCl, 0.2 mM EDTA, 25% glycerol, 1 mM PMSF, 1 μg/ml leupeptin, 1 μg/ml aprotinin). Following 30 minutes incubation at 4° C., insoluble material was removed by centrifugation at 12,000 rpm for 5 minutes, and nuclear extracts were collected as supernatant. Extracts were either used immediately or frozen and stored at −80° C.
# The concentration of extracted proteins was determined using the BioRad DC protein assay kit (BioRad; Hercules, Calif.). Samples (10 μg) were incubated in sodium dodecyl sulfate (SDS)-loading buffer (100 mM Tris-HCl, pH 6.8, 200 mM dithiothreitol (DTT), 4% SDS, 0.2% bromophenol blue, 20% glycerol) at 65° C. for 15 minutes, and separated on 10% (for nucleolin detection) or 8% (for PARP-1) polyacrylamide-SDS gels, followed by electroblotting to polyvinylidene difluoride membranes (PVDF, BioRad). After blocking non-specific binding sites for 1 hour in 5% nonfat dried milk in PBST (0.1% polyoxyethylene(20) sorbitan monolaurate (Tween® 20) in PBS), the membrane was incubated for 1 hour at room temperature or overnight at 4° C. with primary antibody (1:1000 anti-nucleolin or anti-PARP-1; Anti-nucleolin antibody (mouse monoclonal IgG1) and anti-PARP-1 antibody (mouse monoclonal IgG2A) were from Santa Cruz Biotechnology; Santa Cruz; Calif.). After 3 washes in PBST, the membrane was incubated with horseradish peroxidase-conjugated goat anti-mouse antibody (Santa Cruz Biotechnology) for 45 minutes at room temperature and then washed 3 times in PBST. Bound antibodies were detected using enhanced chemiluminescence detection. Equal gel loading and transfer of proteins were confirmed by staining membranes with India ink (Bates et al., 1999).
# To determine if the phenomena observed in Example 2 were specific to UV-irradiated cells or a general feature of apoptosis, protein changes in U937 cells treated with 10 μM CPT (prepared as in Example 1) for 24 hours were also examined. The U937 cells were cultured as in Example 2. Apoptosis-induced changes in nucleolin and PARP-1 were examined as in Example 2.
# U937 cells [2] = assay: MTT viable cell assay after UV irradiation; assay type: cell-based, Human; details: 1 mM 3-ABA pre-treatment, MTT 48 hours after irradiation
# Method: Because PARP-1 is involved in both repair of DNA damage and induction of apoptosis, 3-ABA can both increase apoptotic cell death (by preventing repair) or decrease it (by preventing PARP-1 cleavage), depending on conditions. Therefore, the ability of 3-ABA to inhibit cell death under the conditions used here was examined. Cells were subjected to UV irradiation with or without 1 mM 3-ABA pre-treatment. Untreated and irradiated cells were plated at 2×10^4/ml in a 96-well plate. Viable cells were assessed using the MTT (3-[4,5-dimethylthiazol-2-yl]-2,5-diphenyl tetrazolium bromide) assay (Norgaard et al., 2001) 48 hours after irradiation.
# [3] = system: nucleolin and PARP-1 proteins in U937 cells; assay: Immunoblot of nucleolin and PARP-1 in S-100 and nuclear extracts after UV-induced apoptosis; assay type: cell-based, Human; details: UV-irradiated U937 cells, 30 minutes pre-incubation with 1 mM 3-ABA
# Method: The concentration of extracted proteins was determined using the BioRad DC protein assay kit (BioRad; Hercules, Calif.). […] After 3 washes in PBST, the membrane was incubated with horseradish peroxidase-conjugated goat anti-mouse antibody (Santa Cruz Biotechnology) for 45 minutes at room temperature and then washed 3 times in PBST. Bound antibodies were detected using enhanced chemiluminescence detection. Equal gel loading and transfer of proteins were confirmed by staining membranes with India ink (Bates et al., 1999).
# Some cells received 30 minutes pre-incubation with 1 mM 3-ABA before UV-irradiation.
# [4] = system: nucleolin in medium of U937 cells; assay: Immunoblot of nucleolin shed into serum-free culture medium; assay type: cell-based, Human
# Method: The possibility that nucleolin was shed into the cell culture medium was examined by probing serum-free medium from cultures of U937 cells irradiated with UV light in the absence or presence of 3-ABA. Cell culture and treatment conditions were as in Example 2. To prepare protein from the cell culture medium, the medium was replaced with serum-free medium, and cells were irradiated. Cells were then centrifuged at 1,200 rpm for 10 minutes. Culture medium was collected from untreated and treated cells at 2 hours and 4 hours following irradiation. The medium was filtered (syringe filters with PVDF membranes, Whatman; Clifton, N.J.), and protein present in the medium was concentrated using Centricon (YM-30, Millipore, Bedford, Mass.) according the manufacturer's instructions.
# U937 cells [5] = assay: DNA fragmentation (DNA ladder) assay of apoptosis; assay type: cell-based, Human; details: 10 μM CPT
# Method: Camptothecin (CPT; Sigma Co.; St. Louis, Mo.), an anti-neoplastic topo-isomerase I (Top I) inhibitor, was dissolved in 0.5% (v/v) dimethyl sulfoxide (DMSO)/PBS as stock solutions (stored at −20° C.) and further diluted with water before use. Human U937 cells (myeloid leukemia cell line, from American Type Culture Collection (ATCC); Manassas, Va.) were grown in suspension in RPMI 1640 medium supplemented with 10% heat-inactivated (20 minutes at 65° C.) fetal bovine serum (FBS), 100 U/ml penicillin, 100 μg/ml streptomycin at 37° C. with 5% CO2. For treatment with CPT, exponentially growing U937 cells were treated with 10 μM CPT for 24 hours. For UV irradiation, cells were plated at 5×10^5 cells/ml in dishes (60 mm diameter). The cells were irradiated with UV-light by placing the plate (without a lid) directly in a Stratagene (La Jolla) UV Stratalinker and irradiating for 30 seconds at 254 nm. Some cells received 30 minutes pre-incubation with 1 mM 3-aminobenzamide (ABA); Sigma). Cells were then replaced in the incubator at 37° C. for various times. Apoptosis was observed using a DNA fragmentation assay (Facompre et al., 2001). In this assay, apoptosis is indicated by the appearance of a DNA “ladder”, which is produced by endonuclease cleavage of chromosomal DNA into nucleosomal fragments.
# nucleolin in U937 cells = assay: Immunofluorescence staining of nucleolin in cells; assay type: cell-based, Human
# Method: Cells were collected by centrifugation, washed twice with PBS, and placed on glass slides using a cytospinner. Samples were fixed in 4% paraformaldehyde in PBS for 15 minutes at room temperature and then permeabilized with 0.2% Triton X-100 in PBS for 10 minutes. After two washes with PBS, nonspecific antibody binding sites were blocked by 1 hour incubation at room temperature with 5% normal goat serum in PBS. After 3 washes with PBS, slides were incubated in primary antibody (1:100 anti-mAb IgG1; Santa Cruz Biotechnology) for 1 hour at room temperature then washed 3 times in PBS. Samples were incubated with Alexa-488-labeled secondary antibodies (diluted 1:500 in blocking buffer) for 1 hour at room temperature. Slides were washed 3 times in PBS, were observed using an Olympus BX60F fluorescence microscope and photographed using an Olympus DPIO camera.
# Untreated, UV-irradiated, and 10 μM CPT-treated U937 cells were examined using the above staining method. Culture and treatment conditions were as in Example 2. […] Moreover, there was a dramatic redistribution of nucleolin in the apoptotic nuclei. In untreated cells, nucleolin was predominantly located in the intensely stained nucleoli (FIG. 1, panels A and D), whereas 24 hours after UV irradiation, nucleolin was distributed throughout the nucleolplasm in a speckled pattern (FIG. 1, panels B and E). […]
# [6] = target: plasma membrane nucleolin (Homo sapiens, UniProt P19338); parameters: key: 1: Indicates a good plasma membrane nucleolin-binding GRO.; 2: Indicates a nucleolin control (non-plasma membrane nucleolin binding); details: superscript on GRO name in Table 2; cited from earlier work
# Chain of plasma membrane nucleolin (P19338 whole entry): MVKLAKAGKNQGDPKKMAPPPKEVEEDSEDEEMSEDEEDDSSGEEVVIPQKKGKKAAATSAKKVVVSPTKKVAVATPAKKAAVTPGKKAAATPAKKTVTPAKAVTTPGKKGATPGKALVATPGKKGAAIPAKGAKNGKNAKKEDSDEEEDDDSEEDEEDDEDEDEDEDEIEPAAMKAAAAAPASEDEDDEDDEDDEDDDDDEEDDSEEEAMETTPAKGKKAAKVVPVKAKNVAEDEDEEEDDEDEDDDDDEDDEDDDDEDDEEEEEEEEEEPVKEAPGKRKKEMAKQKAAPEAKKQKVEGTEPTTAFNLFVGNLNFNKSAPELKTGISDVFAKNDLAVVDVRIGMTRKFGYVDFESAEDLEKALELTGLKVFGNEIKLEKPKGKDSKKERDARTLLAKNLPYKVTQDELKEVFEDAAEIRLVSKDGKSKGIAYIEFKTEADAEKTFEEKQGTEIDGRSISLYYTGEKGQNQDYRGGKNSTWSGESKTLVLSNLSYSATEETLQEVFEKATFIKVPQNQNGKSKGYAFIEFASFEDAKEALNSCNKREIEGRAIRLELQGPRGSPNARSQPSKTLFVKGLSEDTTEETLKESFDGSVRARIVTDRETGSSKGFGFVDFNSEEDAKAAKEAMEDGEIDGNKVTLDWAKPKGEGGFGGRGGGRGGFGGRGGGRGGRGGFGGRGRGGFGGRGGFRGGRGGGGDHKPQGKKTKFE
# [7] = U937 cells, 10 μM CPT for 24 hours
compound,measurement,setting,value
"NC(=O)c1cccc(N)c1 [3-ABA, 3-aminobenzamide]",protection from apoptosis-induced changes in nucleolin and PARP-1,"[1]; CPT-treated U937 cells, pre-incubation with 3-ABA",only a small degree of protection
same,reduction of UV-induced cell death,U937 cells [2],only to a small degree
same,PARP-1 cleavage,[3],abrogation of PARP-1 cleavage
same,disappearance of S-100 nucleolin,[3],drastically inhibited the disappearance of S-100 nucleolin
same,loss of nuclear nucleolin,[3],prevented the loss of nuclear nucleolin
same,nucleolin in medium of untreated (non-irradiated) cells,"[4]; U937 cells without UV irradiation, with 3-ABA treatment",almost no nucleolin was detected
same,appearance of full-length nucleolin band in medium after UV irradiation,"[4]; UV-irradiated U937 cells, serum-free medium, with 3-ABA",inhibited
"CC[C@@]1(O)C(=O)OCc2c1cc1n(c2=O)Cc2cc3ccccc3nc2-1 [CPT, Camptothecin]",induction of apoptosis (DNA ladder),U937 cells [5],induced apoptosis
same,time at which DNA ladder clearly observed,U937 cells [5],24 h
same,nuclear nucleolin,[1]; [7],reduced the amount of nuclear nucleolin
same,nucleolin in S-100 fraction,[1]; [7],caused a disappearance of nucleolin from the S-100 fraction
same,PARP-1 cleavage,"[1]; U937 cells, 10 μM CPT, after 4 hours",only partial cleavage
same,distribution of nucleolin in nuclei,nucleolin in U937 cells; U937 cells treated with CPT for 24 hours,the majority of nuclei exhibited a distinct pattern of staining
same,overall intensity of nuclear nucleolin staining,"nucleolin in U937 cells; U937 cells, 10 μM CPT",decreased slightly
"CRO: SEQ ID NO:18 tttcctcctc ctccttctcc tcctcctcc; nucleolin control (DNA TTTCCTCCTCCTCCTTCTCCTCCTCCTCC; listed as DNA, chemistry not given here)",plasma membrane nucleolin binding designation,[6],CRO^2
"GRO15B: SEQ ID NO:8 ttgggggggg tgggt (TTGGGGGGGGTGGGT; listed as DNA, chemistry not given here)",plasma membrane nucleolin binding designation,[6],GRO15B^2
GRO26B: SEQ ID NO:10 ggtggtggtg gttgtggtgg tggtgg,plasma membrane nucleolin binding designation,[6],GRO26B^1
GRO G: SEQ ID NO:25 ggttggtgtg gttgg,plasma membrane nucleolin binding designation,[6],GRO G^1
"GRO H: SEQ ID NO:26 ggggttttgg gg (DNA GGGGTTTTGGGG; listed as DNA, chemistry not given here)",plasma membrane nucleolin binding designation,[6],GRO H^1
"GRO I: SEQ ID NO:27 gggttttggg (DNA GGGTTTTGGG; listed as DNA, chemistry not given here)",plasma membrane nucleolin binding designation,[6],GRO I^1
"GRO J: SEQ ID NO:28 ggggttttgg ggttttgggg ttttgggg (DNA GGGGTTTTGGGGTTTTGGGGTTTTGGGG; listed as DNA, chemistry not given here)",plasma membrane nucleolin binding designation,[6],GRO J^1
"GRO K: SEQ ID NO:29 ttggggttgg ggttggggtt gggg (DNA TTGGGGTTGGGGTTGGGGTTGGGG; listed as DNA, chemistry not given here)",plasma membrane nucleolin binding designation,[6],GRO K^1
"GRO M: SEQ ID NO:31 ggttttggtt ttggttttgg ttttgg (DNA GGTTTTGGTTTTGGTTTTGGTTTTGG; listed as DNA, chemistry not given here)",plasma membrane nucleolin binding designation,[6],GRO M^1
"GRO N: SEQ ID NO:32 tttcctcctc ctccttctcc tcctcctcc; nucleolin control (DNA TTTCCTCCTCCTCCTTCTCCTCCTCCTCC; listed as DNA, chemistry not given here)",plasma membrane nucleolin binding designation,[6],GRO N^2
"GRO O: SEQ ID NO:33 cctcctcctc cttctcctcc tcctcc; nucleolin control (DNA CCTCCTCCTCCTTCTCCTCCTCCTCC; listed as DNA, chemistry not given here)",plasma membrane nucleolin binding designation,[6],GRO O^2
GRO P: SEQ ID NO:34 tggggt; nucleolin control,plasma membrane nucleolin binding designation,[6],GRO P^2
"GRO Q: SEQ ID NO:35 gcatgct; nucleolin control (DNA GCATGCT; listed as DNA, chemistry not given here)",plasma membrane nucleolin binding designation,[6],GRO Q^2
"GRO R: SEQ ID NO:36 gcggtttgcg g; nucleolin control (DNA GCGGTTTGCGG; listed as DNA, chemistry not given here)",plasma membrane nucleolin binding designation,[6],GRO R^2
"GRO S: SEQ ID NO:37 tagg; nucleolin control (DNA TAGG; listed as DNA, chemistry not given here)",plasma membrane nucleolin binding designation,[6],GRO S^2
